According to US20250161473A1, “EXATECAN DERIVATIVE-ANTIBODY CONJUGATE AND MEDICAL USE THEREOF” (Gan & Lee Pharmaceuticals Co., Ltd., priority 2022, published 2025):

What follows are compounds tested on MDA-MB-468 cell line with high TROP-2 expression (assay: Inhibition test of Exatecan derivatives (payload) on in vitro proliferation of tumor cells). Conditions: Homo sapiens, 72 h; MDA-MB-468 cells, 3 days, CellTiter-Glo; read-out: IC50 of MDA-MB-468 cell proliferation inhibition in vitro.
Type: cell-based, human
Experimental: The cell line used in this experiment is the MDA-MB-468 cell line with high TROP-2 expression (Nanjing Cobioer Biosciences Co., Ltd., catalog number: CBP60387). Prepare cell suspension with fresh cell culture medium containing 10% FBS at a density of 3×10^3 cells/mL, add 90 μL per well into an all-white 96-well cell culture plate (Beyotime, item number: FCP968-80pcs), 5% carbon dioxide 37° C. for 24 h. Compounds 1-36 were formulated with DMSO to 1 mM, respectively. Add 20 μL of different samples to be tested in the first column of the 96-well U-bottom dispensing plate, and the sample concentration is 1000 uM; add 20 μL DMSO to each well of the second to tenth columns. Take 5 μL of the sample from the first column to 20 μL DMSO in the second column, mix well, take 5 μL to the third column, and so on to the ninth column. Take 5 μL of the medicine from each well of the dispensing plate to 95 μL of DMEM medium, and mix well. Add 10 μL of prepared samples to be tested at different concentrations to the culture plate, and duplicate wells for each sample. 5% carbon dioxide and cultured at 37° C. for 3 days. Add 50 μL of CTG (CellTiter-Glo® Luminescent Cell Viability Assay, Promega, item number: G7573) to each well, mix on a shaker at room temperature for 30 minutes, incubate for 10 minutes, and read chemiluminescence on a microplate reader (TECAN, Spark). Graphpad Prism 8 software used for data analysis.
`CC[C@@]1(O)C(=O)OCc2c1cc1n(c2=O)Cc2c-1nc1cc(F)c(C)c3c1c2[C@@H](NC(=O)Cc1cccc(N)c1)CC3` [Compound 23] showed an IC50 of 2.64 nM.

Same assay, conditions: Homo sapiens, MDA-MB-468, 72 h, read-out: IC50 of MDA-MB-468 cell proliferation inhibition in vitro
Work on `CC[C@@]1(O)C(=O)OCc2c1cc1n(c2=O)Cc2c-1nc1cc(F)c(C)c3c1c2[C@@H](NC(=O)N[C@@H]1CCNC1)CC3` [Compound 14] yielded an IC50 of 48 nM. `CC[C@@]1(O)C(=O)OCc2c1cc1n(c2=O)Cc2c-1nc1cc(F)c(C)c3c1c2[C@@H](NC(=O)Cc1ccc(N)cc1)CC3` [Compound 2] showed an IC50 of 3.38 nM. `CC[C@@]1(O)C(=O)OCc2c1cc1n(c2=O)Cc2c-1nc1cc(F)c(C)c3c1c2[C@@H](NC(=O)c1ccc(Cl)c(O)c1)CC3` [Compound 7] gave an IC50 of 9.45 nM. For `CC[C@@]1(O)C(=O)OCc2c1cc1n(c2=O)Cc2c-1nc1cc(F)c(C)c3c1c2[C@@H](NC(=O)Cc1ccccc1N)CC3` [Compound 24], the IC50 was 1.65 nM. With `CC[C@@]1(O)C(=O)OCc2c1cc1n(c2=O)Cc2c-1nc1cc(F)c(C)c3c1c2[C@@H](NC(=O)[C@@H]1CCCN1)CC3` [Compound 4] the IC50 was 4.32 nM. `CC[C@@]1(O)C(=O)OCc2c1cc1n(c2=O)Cc2c-1nc1cc(F)c(C)c3c1c2[C@@H](NC(=O)Cc1ccc(N)cc1OC)CC3` [Compound 19] showed an IC50 of 7.52 nM. Compound `CC[C@@]1(O)C(=O)OCc2c1cc1n(c2=O)Cc2c-1nc1cc(F)c(C)c3c1c2[C@@H](NC(=O)Cc1ccc(O)cc1)CC3` [Compound 22] has an IC50 of 2.6 nM. With `CC[C@@]1(O)C(=O)OCc2c1cc1n(c2=O)Cc2c-1nc1cc(F)c(C)c3c1c2[C@@H](NC(=O)C1CCNCC1)CC3` [Compound 31] the IC50 was 136 nM. Compound `CC[C@@]1(O)C(=O)OCc2c1cc1n(c2=O)Cc2c-1nc1cc(F)c(C)c3c1c2[C@@H](NC(=O)Cc1ccc(NC(=O)CO)cc1)CC3` [Compound 3] has an IC50 of 43.6 nM. Work on `CC[C@@]1(O)C(=O)OCc2c1cc1n(c2=O)Cc2c-1nc1cc(F)c(C)c3c1c2[C@@H](NC(=O)c1ccc(O)c(Cl)c1)CC3` [Compound 6] yielded an IC50 of 9.81 nM. In the case of `CC[C@@]1(O)C(=O)OCc2c1cc1n(c2=O)Cc2c-1nc1cc(F)c(C)c3c1c2[C@@H](NC(=O)CCCc1ccc(N)cc1)CC3` [Compound 26], the IC50 is reported as 3.28 nM. `CC[C@@]1(O)C(=O)OCc2c1cc1n(c2=O)Cc2c-1nc1cc(F)c(C)c3c1c2[C@@H](NC(=O)NCC(F)(F)F)CC3` [Compound 8] gave an IC50 of 2.72 nM. Work on `CC[C@@]1(O)C(=O)OCc2c1cc1n(c2=O)Cc2c-1nc1cc(F)c(C)c3c1c2[C@@H](NC(=O)Cc1ccc(N)cc1F)CC3` [Compound 21] yielded an IC50 of 3.05 nM. `CC[C@@]1(O)C(=O)OCc2c1cc1n(c2=O)Cc2c-1nc1cc(F)c(C)c3c1c2[C@@H](NC(=O)[C@@H]1CCCN1C(=O)CO)CC3` [Compound 5] showed an IC50 of 19.3 nM. `CC[C@@]1(O)C(=O)OCc2c1cc1n(c2=O)Cc2c-1nc1cc(F)c(C)c3c1c2[C@@H](NC(=O)N[C@H]1CCCNC1)CC3` [Compound 12] showed an IC50 of 56.2 nM. In the case of `CC[C@@]1(O)C(=O)OCc2c1cc1n(c2=O)Cc2c-1nc1cc(F)c(C)c3c1c2[C@@H](NC(=O)C1CNC1)CC3` [Compound 1], the IC50 is reported as 135 nM. With `CC[C@@]1(O)C(=O)OCc2c1cc1n(c2=O)Cc2c-1nc1cc(F)c(C)c3c1c2[C@@H](NC(=O)N[C@H]1CCNC1)CC3` [Compound 13] the IC50 was 76.5 nM. Compound `CC[C@@]1(O)C(=O)OCc2c1cc1n(c2=O)Cc2c-1nc1cc(F)c(C)c3c1c2[C@@H](NC(=O)CCc1ccc(N)cc1)CC3` [Compound 25] has an IC50 of 8.63 nM.

Same assay, conditions: MDA-MB-468 cells, 3 days, CellTiter-Glo; read-out: IC50 of MDA-MB-468 cell proliferation inhibition in vitro
With `CC[C@@]1(O)C(=O)OCc2c1cc1n(c2=O)Cc2c-1nc1cc(F)c(C)c3c1c2[C@@H](NC(=O)C1CCCN1)CC3` (some centres unmarked) [Compound 36] the IC50 was 6.34 nM.
